pIC50: −log10 of the molar value. ≈ marks a conversion by molar mass, not a printed value. Where “and” joins values, the source holds several entries; their conditions need not be identical. Identical values can stand only once.
Key:
HCT116 Parental cells = test: Clonogenic assay; format: cell-based; details: for Average number of colonies counted / Normalized colonies (% normalized to control): per experiment
Procedure, shortened: (§1)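 Colony formation by BRCA-deficient, PALB2-mutant and wild-type cells (300–1000 cells/well) and MEFs (300 cells/well) over 10–12 days, medium changed every 2 days. Colonies fixed, stained with 0.5% crystal violet and counted; IC50 from 3 or more independent experiments.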

[1] = test system: PALB2 complemented EUFA1341 cells; test: Clonogenic assay; format: cell-based; details: for Average (raw signal of wells) / Normalized (0 micro M = 100) / average - blank: per experiment
Procedure, shortened: as §1

EUFA1341 PALB2 mut cells = test: Clonogenic assay; format: cell-based
Procedure, shortened: as §1

DLD1 BRCA2 -/- cells [2] = test: Apoptosis assay (FITC active caspase-3); format: cell-based; set-up: FITC+ AVG / FITC- AVG: unit not given here; details: for % population FITC Caspase-3 Negative / % population FITC Caspase-3 Positive: bar matched by sums to 100; for FITC+ AVG / FITC- AVG: DLD1 BRCA2 null
Method: DLD1 BRCA2 -/-, DLD1 Parental cells were plated on six well plates and treated with RTX-161 1 day after plating. Medium was replaced every 2 days with RTX-161. Cells were harvested 6 days after plating for apoptosis assay using FITC active caspase-3 apoptosis kit (BD biosciences, catalog # 550480) according to manufacturer’s instructions and analyzed by FACS with Celesta (Becton Dickinson).

[3] = Clonogenic assay, OLA with or without RTX-161 (Fig. 2 a; cell line not given); format: cell-based; details: OLA 0, single experiments, relative to vehicle
DLD1 Parental cells = test: γ-H2AX immunofluorescence; format: cell-based; details: DLD1-BRCA2-WT, 5 microM
Method: (§2) Cells were plated on six well plates with glass-coverslips and treated with RTX-161 day after plating. Four days after treatment, cells were fixed with 4% (v/v) paraformaldehyde for 20 min at 4 °C, washed with PBS, permeabilized with 0.5% (v/v) Triton X for 10 min and blocked with PBS containing 3% BSA. Cells were incubated with primary antibody overnight at 4 °C followed by 3x washes with PBS and then 1 h incubation with secondary antibody. The incubations were performed in the dark in a humidified chamber. After 3x washing in PBS for 3 min, slides were mounted in 20 ul Prolong antifade with DAPI (LifeTechnologies) to counterstain the nuclei. Cells were visualized and imaged using Nikon A1R Confocal microscope at a 63X objective magnification, and images were analyzed using ImageJ software. For quantification, >50 cells were counted for all conditions from three independent experiments. The primary antibody used for IF was rabbit anti-gamma H2AX [p Ser139] antibody (Bethyl Lab #A700-053) 1:500 dilution in 1% BSA in PBS. The secondary antibody was Goat anti-Rabbit IgG (H + L) Secondary Antibody, DyLight 488 (Thermo #35552) 1:2000 dilution in 1% BSA in PBS.

DLD1 BRCA2 -/- cells [4] = test: γ-H2AX immunofluorescence; format: cell-based
Method: as §2

[5] = test system: PE01 ovarian cancer cells; test: Clonogenic assay; format: cell-based; details: clonogenic survival
Procedure, shortened: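 Cells seeded at low density (300–1000 per well, by plate size and genotype), medium changed every 2 days, colonies grown 10–12 days. Fixed in water:ethanol:acetic acid, stained with 0.5% crystal violet, then counted; IC50 from ≥3 independent experiments, mean ± SEM.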

Solubility (2% DMSO/PBS) = format: physicochemical; details: aqueous buffer, kinetic from dmso stock
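Wherever percent suvival is given: colony counts relative to DMSO-treated cells set as 100%.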

CN(C(=O)Oc1c(N2CCN(CCO)C2=O)cc(C(F)(F)F)cc1C(F)(F)F)c1ccc(F)cc1 [RTx-161]
effect in BRCA2-WT cells (HCT116 Parental cells; HCT116, colony survival): little to no effect | Normalized colonies, pooled Average of 3 experiments (HCT116 Parental cells; RTX-161 0.5 micro M): 101.74% | Average number of colonies counted (HCT116 Parental cells; RTX-161 0.5 micro M): 118 and 67.6667 and 68.6667 | Normalized colonies (% normalized to control) (HCT116 Parental cells; RTX-161 0.5 micro M): 99.7183% and 107.407% and 98.0952% | Normalized colonies, pooled Average of 3 experiments (HCT116 Parental cells; RTX-161 1 micro M): 98.8027% | Average number of colonies counted (HCT116 Parental cells; RTX-161 1 micro M): 114.333 and 64.6667 and 68 | Normalized colonies (% normalized to control) (HCT116 Parental cells; RTX-161 1 micro M): 96.6197% and 102.646% and 97.1429% | Normalized colonies, pooled Average of 3 experiments (HCT116 Parental cells; RTX-161 2 micro M): 97.4337% | Average number of colonies counted (HCT116 Parental cells; RTX-161 2 micro M): 112.667 and 59.6667 and 71.6667 | Normalized colonies (% normalized to control) (HCT116 Parental cells; RTX-161 2 micro M): 95.2113% and 94.709% and 102.381% | Normalized colonies, pooled Average of 3 experiments (HCT116 Parental cells; RTX-161 4 micro M): 97.4186% | Average number of colonies counted (HCT116 Parental cells; RTX-161 4 micro M): 107.667 and 62 and 72 | Normalized colonies (% normalized to control) (HCT116 Parental cells; RTX-161 4 micro M): 90.9859% and 98.4127% and 102.857% | Normalized colonies, pooled Average of 3 experiments (HCT116 Parental cells; RTX-161 8 micro M): 96.7852% | Average number of colonies counted (HCT116 Parental cells; RTX-161 8 micro M): 104.667 and 63 and 71.3333 | Normalized colonies (% normalized to control) (HCT116 Parental cells; RTX-161 8 micro M): 88.4507% and 100% and 101.905% | activity against PALB2 complemented EUFA1341 cells [1]: little to no activity | Average (raw signal of wells) ([1]; RTX-161 2.5 micro M): 1.026 and 0.9713 and 0.6573 | Normalized (0 micro M = 100) ([1]; RTX-161 2.5 micro M): 116.435% and 111.613% and 105.551% | average - blank ([1]; RTX-161 2.5 micro M): 0.8256 and 0.7713 and 0.5073 | Average (raw signal of wells) ([1]; RTX-161 5 micro M): 1.035 and 0.9992 | Normalized (0 micro M = 100) ([1]; RTX-161 5 micro M): 117.788% and 115.651% and 105.551% | average - blank ([1]; RTX-161 5 micro M): 0.8352 and 0.7992 and 0.5073 | Average (raw signal of wells) ([1]; RTX-161 10 micro M): 0.6121 and 1.137 and 1.058 | Normalized (0 micro M = 100) ([1]; RTX-161 10 micro M): 96.1382% and 132.128% and 124.139% | survival of PALB2-mutant EUFA1341 cells (EUFA1341 PALB2 mut cells): significant reduction in the survival | pIC50 (EUFA1341 PALB2 mut cells; EUFA1341 cells, label beside PALB2-mut curve, read-out: IC50 clonogenic survival): ~5.30 | Normalized (0 micro M = 100) (EUFA1341 PALB2 mut cells; RTX-161 2.5 micro M, per experiment): 67.9566% and 76.5823% and 64.8427% | Normalized (0 micro M = 100) (EUFA1341 PALB2 mut cells; RTX-161 5 micro M, per experiment): 50.4887% and 55.1827% and 45.6779% | Average (raw signal of wells) (EUFA1341 PALB2 mut cells; RTX-161 10 micro M, per experiment): 0.37 and 0.6469 and 0.6018 | % population FITC Caspase-3 Negative (DLD1 BRCA2 -/- cells [2]; 10 uM RTX-161): 92% | % population FITC Caspase-3 Positive (DLD1 BRCA2 -/- cells [2]; 10 uM RTX-161): 8% | % population FITC Caspase-3 Negative (DLD1 BRCA2 -/- cells [2]; 20 uM RTX-161): 90% | % population FITC Caspase-3 Positive (DLD1 BRCA2 -/- cells [2]; 20 uM RTX-161): 10% | FITC+ AVG (DLD1 BRCA2 -/- cells [2]; 10 uM, left block of sheet): 8.433 | FITC- AVG (DLD1 BRCA2 -/- cells [2]; 10 uM, left block of sheet): 91.5667 | FITC+ AVG (DLD1 BRCA2 -/- cells [2]; 10 uM, middle block of sheet): 12.1 | FITC- AVG (DLD1 BRCA2 -/- cells [2]; 10 uM, middle block of sheet): 87.9 | FITC+ AVG (DLD1 BRCA2 -/- cells [2]; 10 uM, right block of sheet): 12.3333 | FITC- AVG (DLD1 BRCA2 -/- cells [2]; 10 uM, right block of sheet): 87.6667 | FITC+ AVG (DLD1 BRCA2 -/- cells [2]; 20 uM, left block of sheet): 9.633 | FITC- AVG (DLD1 BRCA2 -/- cells [2]; 20 uM, left block of sheet): 90.3667 | FITC+ AVG (DLD1 BRCA2 -/- cells [2]; 20 uM, middle block of sheet): 13.8333 | FITC- AVG (DLD1 BRCA2 -/- cells [2]; 20 uM, middle block of sheet): 86.1667 | FITC+ AVG (DLD1 BRCA2 -/- cells [2]; 20 uM, right block of sheet): 13.3333 | FITC- AVG (DLD1 BRCA2 -/- cells [2]; 20 uM, right block of sheet): 86.6667 | apoptosis (DLD1 BRCA2 -/- cells [2]; versus parental): selectively induced PARP cleavage and apoptosis | percent suvival ([3]; RTX-161 0.5 micro M): 63.3333% and 80.7018% and 61.1842% | percent suvival ([3]; RTX-161 1 micro M): 55.8333% and 71.9298% and 46.0526% | percent suvival ([3]; RTX-161 2 micro M): 43.3333% and 23.3918% and 22.3684% | Percent of positive nuclei, Average (DLD1 Parental cells; Average of Expt 1-3 (DMSO 4.28755)): 10.2071% | Percent of positive nuclei (3 or more than 3 g-H2AX foci) (DLD1 Parental cells; single Experiments 1-3): 11.5942% and 12.5984% and 6.429% | Percent of positive nuclei, Average (DLD1 BRCA2 -/- cells [4]; DLD1- BRCA2-null, 5 microM, Average of Expt 1-3 (DMSO 14.884)): 48.7855% | Percent of positive nuclei (3 or more than 3 g-H2AX foci) (DLD1 BRCA2 -/- cells [4]; DLD1- BRCA2-null, 5 microM, single Experiments 1-3): 47.2973% and 43.3071% and 55.7522% | DNA damage (γ-H2AX phosphorylation) (DLD1 BRCA2 -/- cells [4]; immunofluorescence and Western blot, versus parental): selectively caused DNA damage | combination with Olaparib [5]: strongly potentiated the effects of Olaparib | single agent activity [5]: little to no activity as a single agent

CN(C(=O)Oc1ccc(C(F)(F)F)cc1C(F)(F)F)c1ccc(F)cc1 [MC160385]
solubility (Solubility (2% DMSO/PBS)): 56 µM (≈ 21.3 µg/mL)

— PMC10997755, “Discovery of a small-molecule inhibitor that traps Polθ on DNA and synergizes with PARP inhibitors” (Nature Communications, 2024)
